Key:
[1] = system: GST-RANKL-administered, ovariectomized 7-week-old female C57BL/6N mice; assay: Drug evaluation with a selective estrogen receptor modulator (raloxifene) in GST-RANKL/OVX mice; assay type: in vivo, mouse
Source text: In addition, PBS (i.p.) and ultrapure water (p.o.) were used as control substances for comparison with GST-RANKL and raloxifene, respectively, upon administration.
The serum collected from each mouse was subjected to measurement of serum bone resorption markers (Ca and TRAP-5b) and an osteogenesis marker (ALP). Each femur was subjected to measurement of the bone density, the bone mineral content, and the cortical bone thickness with pQCT at points 0.6, 0.8, 1.0 mm from the distal growth plate on the proximal side. In addition, image analysis was carried out with micro CT.

[2] = system: GST-RANKL-administered 7-week-old female C57BL/6 mice; assay: Comparison of a plurality of bisphosphonates in GST-RANKL mice; assay type: in vivo, mouse; settings: for dose at which the effects were exhibited: s.c. from the day before GST-RANKL
Method: GST-RANKL was intraperitoneally administered 3 times at 1 mg/kg every 24 hours. The femur, tibia, and serum were collected from each mouse 1.5 hours after the 3rd GST-RANKL administration. Measurement of TRAP-5b, calcium (Ca), and alkaline phosphatase (ALP) in the serum was carried out. Each femur was subjected to bone density measurement with pQCT and image analysis with micro CT.

[3] = system: GST-RANKL-administered 7-week-old female C57BL/6N mice; assay: Evaluation of RANKL-signal-inhibiting compound (LFM-A13) in osteopenia mouse models; assay type: in vivo
Method: GST or GST-RANKL (20 μg) was administered 3 times to 7-week-old female C57BL/6N mice every 24 hours. LFM-A13 (20 mg/kg body weigh) or physiological saline was administered thereto 1 hour before GST-RANKL administration. Measurement of the serum Ca concentration and bone morphology measurement was carried out 1.5 hours after the 3rd GST-RANKL administration. In addition, 3D image analysis was carried out with micro CT.

[4] = system: GST-RANKL-administered 7-week-old female C57BL/6N mice; assay: Evaluation of an osteoporosis therapeutic agent (risedronate) with GST-RANKL-administered mice; assay type: in vivo, mouse
Method: GST-RANKL (426 nmol) was intraperitoneally administered 3 times to groups of 7-week-old female C57BL/6N mice (5 to 6 individuals each) every 24 hours. An osteoporosis therapeutic agent (risedronate) was subcutaneously administered at 0.01 mg/kg every 24 hours from 3 days before GST-RANKL administration. Administration of the agent was continued to the end of the experimentation every 24 hours. The serum, femur, and tibia were collected from each mouse 1.5 hours after the 3rd administration of GST-RANKL. Bone resorption parameters (calcium, CTx, and TRAP-5b) and osteogenesis parameters (osteocalcin and ALP) in the serum were measured. The femur bone density was determined with the use of pQCT and micro CT. Measurement values were compared with those for a control group by the Dunnett method for testing.

[5] = system: GST-RANKL-administered 7-week-old female C57BL/6 mice; assay: Drug evaluation with bisphosphonate (risedronate) in GST-RANKL mice; assay type: in vivo, mouse
Method: Risedronate was separately administered via a subcutaneous route to groups of 7-week-old female C57BL/6 mice at doses of 3, 10, and 30 μg/kg every 24 hours from the day before GST-RANKL administration to the end of the experimentation. The femur and serum were collected from each mouse 1.5 hours after the 3rd administration of GST-RANKL. Measurement of TRAP-5b, calcium (Ca), and alkaline phosphatase (ALP) was carried out. Each femur was subjected to bone density measurement and image analysis with the use of pQCT.

[6] = system: 7-week-old female C57BL/6N mice; assay: Production of osteopenia model mice with soluble RANKL; assay type: in vivo, mouse
Method: Soluble RANKL (produced by Peprotech) was intraperitoneally administered 3 times to groups of 7-week-old female C57BL/6N mice (10 individuals each) at doses of 57 and 426 nmol every 24 hours. The serum and femur were collected from each mouse 1.5 hours after the 3rd administration. Bone resorption markers and osteogenesis markers in the serum were measured. The bone density was measured with the use of pQCT at points 0.6, 0.8, and 1.0 mm from the distal growth plate on the proximal side of the femur.

[7] = raloxifene 1 or 10 mg/kg p.o. 14 days
[8] = combination of GST-RANKL and risedronate 0.01 mg/kg

Molecule: O=C(c1ccc(OCCN2CCCCC2)cc1)c1c(-c2ccc(O)cc2)sc2cc(O)ccc12 [raloxifene]
- cancellous bone density (pQCT) ([1]; among the all groups): no significant differences
- cortical bone mineral content increase in GST-RANKL+OVX group ([1]; raloxifene 1 mg/kg, 0.8 mm): 93%
- cortical bone thickness increase in GST-RANKL+OVX group ([1]; raloxifene 1 mg/kg, 0.8 mm): 101%
- cortical bone mineral content increase in GST-RANKL+OVX group ([1]; raloxifene 1 mg/kg, 1.0 mm): 136%
- cortical bone thickness increase in GST-RANKL+OVX group ([1]; raloxifene 1 mg/kg, 1.0 mm): 137%
- total bone density increase in GST-RANKL+OVX group ([1]; raloxifene 1 mg/kg, 1.0 mm): 10%
- serum ALP concentration ([1]; raloxifene 1 mg/kg, p<0.05): significantly decreased
- cortical bone mineral content increase in GST-RANKL+OVX group ([1]; raloxifene 10 mg/kg, 0.6 mm): 87%
- cortical bone thickness increase in GST-RANKL+OVX group ([1]; raloxifene 10 mg/kg, 0.6 mm): 92%
- total bone density increase in GST-RANKL+OVX group ([1]; raloxifene 10 mg/kg, 0.6 mm): 10%
- cortical bone mineral content increase in GST-RANKL+OVX group ([1]; raloxifene 10 mg/kg, 0.8 mm): 118%
- cortical bone thickness increase in GST-RANKL+OVX group ([1]; raloxifene 10 mg/kg, 0.8 mm): 123%
- total bone density increase in GST-RANKL+OVX group ([1]; raloxifene 10 mg/kg, 0.8 mm): 11%
- cortical bone mineral content increase in GST-RANKL+OVX group ([1]; raloxifene 10 mg/kg, 1.0 mm): 137%
- cortical bone thickness increase in GST-RANKL+OVX group ([1]; raloxifene 10 mg/kg, 1.0 mm): 133%
- total bone density increase in GST-RANKL+OVX group ([1]; raloxifene 10 mg/kg, 1.0 mm): 11%
- serum ALP concentration ([1]; raloxifene 10 mg/kg, p<0.01): significantly decreased
- serum Ca concentration [1, 7]: no significant changes
- serum TRAP-5b concentration [1, 7]: no significant changes

Molecule: NCCCC(O)(P(=O)(O)O)P(=O)(O)O [alendronate]
- serum Ca concentration vs RANKL administration ([2]; 300 μg/kg s.c., p<0.05): significantly decreased
- increase in the TRAP-5b concentration ([2]; 300 μg/kg, p<0.01): significantly suppressed
- dose at which the effects were exhibited [2]: 0.3 mg/kg

Molecule: C/C(O)=C(\C#N)C(=O)Nc1cc(Br)ccc1Br [LFM-A13]
- bone mass decrease caused by GST-RANKL (micro CT) ([3]; LFM-A13 20 mg/kg 1 hour before GST-RANKL 20 μg): suppressed
- decrease in the trabecular number (Tb.N) resulting from GST-RANKL ([3]; LFM-A13 20 mg/kg, p<0.01): significantly suppressed
- decrease in unit bone mass (BV/TV) caused by GST-RANKL ([3]; LFM-A13 20 mg/kg, p<0.01): significantly suppressed
- increase in the eroded surface area (ES/BS) resulting from GST-RANKL ([3]; LFM-A13 20 mg/kg, p<0.01): significantly suppressed
- increase in the osteoclast number (N.Oc/B.Pm) resulting from GST-RANKL ([3]; LFM-A13 20 mg/kg, p<0.01): significantly suppressed
- decrease in the trabecular width (Tb.Th) resulting from GST-RANKL ([3]; LFM-A13 20 mg/kg, p<0.05): significantly suppressed
- increase in the serum Ca concentration resulting from GST-RANKL ([3]; LFM-A13 20 mg/kg, p<0.05): significantly suppressed

Molecule: O=P(O)(O)C(O)(Cc1cccnc1)P(=O)(O)O [risedronate]
- serum Ca concentration vs RANKL administration ([2]; 1 μg/kg s.c., p<0.01): significantly decreased
- increase in the TRAP-5b concentration ([2]; 1 μg/kg, p<0.05): significantly suppressed
- increase in the TRAP-5b concentration ([2]; 10 μg/kg, p<0.01): significantly suppressed
- serum Ca concentration vs RANKL administration ([2]; 100 μg/kg s.c., p<0.01): significantly decreased
- bone density decrease suppressed to ([2]; 100 μg/kg, 0.6-mm point): 1%
- increase in the TRAP-5b concentration ([2]; 100 μg/kg, p<0.01): significantly suppressed
- dose at which the effects were exhibited [2]: 0.1 mg/kg
- serum CTx concentration decrease vs control group ([4]; combination of GST-RANKL 426 nmol and risedronate 0.01 mg/kg s.c.): approximately 30%
- serum TRAP-5b concentration decrease vs control group ([4]; combination of GST-RANKL 426 nmol and risedronate 0.01 mg/kg s.c. every 24 hours): approximately 30%
- femur bone density vs control [4, 8]: comparable to that for the control group
- serum alkaline phosphatase concentration vs control [4, 8]: did not change
- serum osteocalcin concentration vs control [4, 8]: did not change
- serum TRAP-5b decrease vs RANKL alone ([5]; risedronate 3 μg/kg s.c. every 24 hours): approximately 30%
- bone density decrease suppressed to ([5]; risedronate 3 μg/kg, 0.6 mm): 12%
- bone density decrease suppressed to ([5]; risedronate 3 μg/kg, 0.8 mm): 18%
- bone density decrease suppressed to ([5]; risedronate 3 μg/kg, 1.0 mm): 24%
- serum TRAP-5b decrease vs RANKL alone ([5]; risedronate 10 μg/kg s.c.): ~50%
- bone density decrease suppressed to ([5]; risedronate 10 μg/kg, 0.6 mm): 13%
- bone density decrease suppressed to ([5]; risedronate 10 μg/kg, 0.8 mm): 28%
- bone density decrease suppressed to ([5]; risedronate 10 μg/kg, 1.0 mm): 30%
- serum ALP concentration vs RANKL alone ([5]; risedronate 30 μg/kg): significantly decreased
- serum TRAP-5b decrease vs RANKL alone ([5]; risedronate 30 μg/kg s.c.): ~70%
- bone density decrease suppressed to ([5]; risedronate 30 μg/kg, 0.6 mm): 10%
- bone density decrease suppressed to ([5]; risedronate 30 μg/kg, 0.8 mm): 18%
- bone density decrease suppressed to ([5]; risedronate 30 μg/kg, 1.0 mm): 20%

Molecule: CC(O)(P(=O)(O)O)P(=O)(O)O [etidronate]
- dose at which the effects were exhibited [2]: 30 mg/kg

B1: Soluble RANKL: Soluble RANKL (produced by Peprotech) (protein, UniProt O14788 69-317, looked up)
extracellular domain: YFRAQMDPNRISEDGTHCIYRILRLHENADFQDTTLESQDTKLIPDSCRRIKQAFQGAVQKELQHIVGSQHIRAEKAMVDGSWLDLAKRSKLEAQPFAHLTINATDIPSGSHKVSLSSWYHDRGWAKISNMTFSNGKLIVNQDGFYYLYANICFRHHETSGDLATEYLQLMVYVTKTSIKIPSSHTLMKGGSTKYWSGNSEFHFYSINVGGFFKLRSGEEISIEVSNPSLLDPDQDATYFGAFKVRDID
modifications: extracellular domain
- femur bone density decrease ([6]; 426 nmol): approximately 20%
- serum CTx concentration, fold as high ([6]; 426 nmol): ~1.5 fold
- serum alkaline phosphatase concentration ([6]; 426 nmol): did not vary
- serum osteocalcin concentration ([6]; 426 nmol): did not vary
- serum calcium concentration, fold as high ([6]; 426 nmol high dose i.p. 3 times): approximately 1.4 fold
- serum TRAP-5b concentration, fold as high ([6]; 426 nmol, no significant difference): approximately 1.25 fold

— patent US8334261B2, “Osteopenia animal model” (Oriental Yeast Co., Ltd., priority 2006, dated 2012)
